Like-named read-outs stand apart in the source and are kept apart here.
System: HCC461
Test: cell viability assay in HCC461, compound alone
Type: cell-based
[1] = HCC461, HCC461 cells, compound alone, read-out: IC50 (uM) in cell viability assay in HCC461
[2] = HCC461, HCC461, Tables 6-9, read-out: IC50 (μM) in cell viability assay in HCC461

Row | SMILES | IC50 [1] [µM] | other results
1 | CN[C@@H](C)C(=O)N[C@@H](CCCCNC(=O)c1cccc(C(=O)N[C@H]2C[C@@H](C(=O)N[C@@H]3CCCc4ccccc43)N(C(=O)[C@@H](NC(=O)[C@H](C)NC)C(C)(C)C)C2)c1)C(=O)N1CC=C[C@H]1C(=O)N[C@@H]1CCCc2ccccc21 [Compound 144] | – | IC50 [2]: 0.043 µM
2 | CN[C@@H](C)C(=O)N[C@H](C(=O)N1C[C@@H](NC(=O)c2cccc(C(=O)N[C@H]3C[C@@H](C(=O)NC4CCCC5CCCCC54)N(C(=O)[C@@H](NC(=O)[C@H](C)NC)C(C)(C)C)C3)c2)C[C@H]1C(=O)NC1CCCC2CCCCC21)C(C)(C)C (stereo partly drawn) [Compound P3-60] | – | IC50 (HCC461 cells, compound alone, read-out: IC50 (uM) in cell viability assay in HCC461): 0.311 µM
3 | CN[C@@H](C)C(=O)N[C@H](C(=O)N1C[C@@H](NC(=O)c2cc(C(=O)N[C@H]3C[C@@H](C(=O)NC4CCCc5ccccc54)N(C(=O)[C@@H](NC(=O)[C@H](C)NC)C(C)(C)C)C3)cc([N+](=O)[O-])c2)CC1C(=O)N[C@@H]1CCCc2ccccc21)C(C)(C)C (stereo partly drawn) [Compound P3-16] | 0.007 | –
4 | CN[C@@H](C)C(=O)N[C@H](C(=O)N1C[C@@H](NC(=O)CC[C@@H](NC(=O)[C@H](NC(=O)[C@@H](C)NC)C(C)C)C(=O)N[C@@H](C)C(C)C)C[C@H]1C(=O)N[C@@H]1CCCc2ccccc21)C(C)(C)C [Compound 158] | – | IC50 [2]: > 30 µM
5 | CN[C@@H](C)C(=O)N[C@H](C(=O)N1CCC[C@H]1C(=O)N[C@H](CNC(=O)C1CCC(C(=O)NC[C@@H](NC(=O)[C@@H]2CCCN2C(=O)[C@@H](NC(=O)[C@H](C)NC)C(C)(C)C)C2CCCCC2)CC1)C1CCCCC1)C(C)(C)C (stereo partly drawn) [Compound P4-6] | – | IC50 (HCC461, HCC461, Tables 15-18, read-out: IC50 (uM) in cell viability assay in HCC461): 0.07 µM
6 | CN[C@@H](C)C(=O)N[C@H](C(=O)N1C[C@@H](n2cc(-c3cccc(-c4cn([C@H]5C[C@@H](C(=O)N[C@H](C)c6ccccc6)N(C(=O)[C@@H](NC(=O)[C@H](C)NC)C(C)(C)C)C5)nn4)c3)nn2)C[C@H]1C(=O)N[C@H](C)c1ccccc1)C(C)(C)C [Compound P3-88] | 0.033 | –

Second part, led by results:

Row | IC50 [1] [µM] | SMILES | other results
7 | 0.214 | CN[C@@H](C)C(=O)N[C@H](C(=O)N1C[C@@H](NC(=O)C[C@H](NC(C)=O)C(=O)N[C@H]2C[C@@H](C(=O)N[C@@H]3CCCc4ccccc43)N(C(=O)[C@@H](NC(=O)[C@H](C)NC)C(C)(C)C)C2)C[C@H]1C(=O)N[C@@H]1CCCc2ccccc21)C(C)(C)C [Compound P3-67] | –
8 | 0.181 | CN[C@@H](C)C(=O)N[C@H](C(=O)N1C[C@@H](NC(=O)c2cccc(C(=O)N[C@H]3C[C@@H](C(=O)Nc4cccc5c4CCCC5)N(C(=O)[C@@H](NC(=O)[C@H](C)NC)C(C)(C)C)C3)c2)C[C@H]1C(=O)Nc1cccc2c1CCCC2)C(C)(C)C [Compound P3-45] | –
9 | 0.051 | CN[C@@H](C)C(=O)N[C@H](C(=O)N1C[C@@H](NC(=O)c2cc(N)cc(C(=O)N[C@H]3C[C@@H](C(=O)N[C@@H]4CCCc5ccccc54)N(C(=O)[C@@H](NC(=O)[C@H](C)NC)C4CCCCC4)C3)c2)C[C@H]1C(=O)N[C@@H]1CCCc2ccccc21)C1CCCCC1 [Compound P3-54] | –
